The values below are quoted from earlier work in US20220288054A1, “COMPOSITIONS AND METHODS TO TREAT NON-ALCOHOLIC FATTY LIVER DISEASES (NAFLD)” (Coherus Biosciences, Inc., priority 2019, published 2022).

The conditions of data set [1]: monotherapy, STELLAR-4 phase 3.
In another data set the test system is diabetic rodents. The note with it: administered to diabetic rodents.

With `Cc1cc(F)c(C(=O)Nc2cccc(-c3nncn3C(C)C)n2)cc1-n1cnc(C2CC2)c1` [selonsertib], the primary endpoint entry in data set [1] is given as “failed to meet the primary endpoint”.

In the case of `CCCCOCCOc1ccc(-c2ccc3c(c2)/C=C(/C(=O)Nc2ccc([S@@+]([O-])Cc4cncn4CCC)cc2)CCCN3CC(C)C)cc1` [Cenicriviroc], the safety profile result (289 patients, 1 year of therapy) is on record as “excellent safety profile”. Moreover, the liver fibrosis improvement result (289 patients, after 1 year of therapy) is listed as “consistently demonstrated liver fibrosis improvement”. In addition, the antifibrotic activity entry (adult patients with NASH and fibrosis, phase 2b) is listed as “provided antifibrotic activity”. The tolerability entry (adult patients, oral, phase 2b) is on record as “well-tolerated”.

B1: FGF21: amino acid sequence shown in FIG. 3 (SEQ ID NO: 3) (protein, listed as Homo sapiens)
chain: MDSDETGFEHSGLWVSVLAGLLLGACQAHPIPDSSPLLQFGGQVRQRYLYTDDAQQTEAHLEIREDGTVGGAADQSPESLLQLKALKPGVIQILGVKTSRFLCQRPDGALYGSLHFDPEACSFRELLLEDGYNVYQSEAHGLPLHLPGNKSPHRDPAPRGPARFLPLPGLPPALPEPPGILAPQPPDVGSSDPLSMVGPSQGRSPSYAS
In the case of B1, the glucose uptake result in the data set on mouse adipocytes was “activates glucose uptake”. Besides, in the data set with diabetic rodents, the “blood glucose and triglyceride levels” value is “lower blood glucose and triglyceride levels”.
